Where two headings read alike, the source gives them in different places. Where a SMILES comes first, the peptide text is derived from it. [ ]: non-standard residue; d: D form. N(2-ethylhexyl)Gly = CCCCC(CC)CNCC(=O)O; Gly(N-dodecyl) = CCCCCCCCCCCCNCC(=O)O; N(CH(CH2OH)2)Gly = O=C(O)CNC(CO)CO; N(octyl)Gly = CCCCCCCCNCC(=O)O
Key:
[1] = Percent encapsulated mRNA, RiboGreen assay; type: physicochemical; details: Table 5; delivery vehicle comprising the peptoid, Formulation D22, fLuc mRNA
In short: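 Modified RiboGreen fluorescence assay on Fluc mRNA formulations diluted to 500 ng/ml in Tris-EDTA. Samples were read with and without Triton X-100 lysis (2% for 10 min in one protocol). Percent encapsulation was derived from the fluorescence ratio of intact versus lysed particles.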

[2] = Zeta potential of delivery vehicles; type: physicochemical; details: Table 5; delivery vehicle, pH 7 buffer; in mV (unit assumed)
Method: In one particular instance, the size and polydispersity (PDI) of delivery vehicles was measured by dynamic light scattering in PBS using a DynaPro® plate reader III. The zeta potential of delivery vehicles was determined using Nano-ZS™ particle analyzer. Zeta sample was diluted to 30 uM total lipid in a weakly buffered solution of 10 mM HEPES, 10 mM MES, 10 mM ammonium acetate pH 7. Measurements were collected in duplicate for over 30 run with the voltage manually set to […]

BALB/c mice = test: In vivo fLuc mRNA expression after IV dose, whole body and organ bioluminescence; details: BALB/c mice, IV, luminescence 6 hours after dose, lipid block screen
Excerpt: In one particular instance, peptoids disclosed herein were formulated into delivery vehicles by first dissolving in ethanol along with DSPC, cholesterol, and DMG-PEG2000 at weight ratio of 20:1.8:7.2:1.8 (Formulation D22 in Table 3, above), then mixed with firefly luciferase (fLuc) mRNA dissolved in an aqueous buffer at a volume ratio of 1:3 via microfluidic nanoprecipitation on a turbulent mixing device, resulting in small, low dispersity particles. Physical particle properties were characterized. Delivery vehicles with initial sizes larger than 120 nm were not brought forward into in vivo screening as liver fenestrae primarily accommodate LNPs sized under 100 nm. In vivo expression of delivery vehicles comprising peptoids with varied headgroups was evaluated using fLuc expression in BALB/c mice 6 hours after IV dose (FIG. 1). […] The aminoethyl and aminopropyl headgroups both show preferential expression in lung (FIG. 2), potentially due to the high basicity of the pendant primary amine, as groups with higher pKas are known to accumulate in that organ. […] While spleen and lung selectivity merit further optimization for future therapeutic applications, liver-selective targets were used for further studies herein to prepare for systemic delivery of antibody targets and maximize their serum expression with anti-RSV cargo.
Intravenous administration. The delivery vehicle complexes disclosed herein are effective for in vivo administration of Fluc mRNA to BALB/c mice through multiple routes of administration. In general, delivery system complexes were administered at a dose of 0.5 mg/kg via a tail-vein injection, and the resulting bioluminescence was quantified after 6 hours. Organ-specific bioluminescence was quantified by sacrificing the treated animal, dissecting out the organs of interest, and separately quantifying the resulting bioluminescence
In one particular instance, to investigate how the peptoid lipid block impacts in vivo expression, delivery vehicles with diameter larger than 120 nm were excluded and remaining candidates were administered IV to BALB/c mice. Luminescence was measured after 6 hours and the resulting expression in liver, lung and spleen were quantified. Even without changing the cationic headgroup, luciferase expression spanned 4 orders of magnitude as a result of altering the lipid block in this series. […] In vivo expression of all candidates was then fit to a multi-parameter model containing the 4 input parameters to understand the individual contributions of each factor to overall performance. […] Contour plots of the impact of these factors on expression (all using Ehx as the branched/unsaturated monomer) are shown in FIG. 4.
For imaging studies, female BALB/c mice (6-8 weeks old) were obtained and acclimatized for a minimum of 3 days prior to experiments. The animals were maintained on a 12 hour light cycle in a temperature and humidity controlled room. A daily health check was performed as well as food and water check. For dosing, mice were injected with 2.5 μg fLuc mRNA-containing delivery vehicles intravenously in 100 μL total injection volume. At 6 hours post-injection, mice were anesthetized with isoflurane, and injected intraperitoneally with 30 mg/mL D-luciferin at a dose of 10 μL per gram bodyweight intraperitoneally. Imaging was done 10 minutes post D-luciferin injection using an IVIS® Spectrum Imaging System. Immediately after in vivo imaging, mice were terminally bled by cardiac puncture and euthanized. The organs of interest were harvested, placed in black 24-well plates, and imaged. Living Image® software was used to quantify the total photon flux in regions of interest. For secreted protein studies, mice were injected with aRSV mRNA-containing delivery vehicles intravenously in 100 μL total injection volume. Mice were euthanized after 24 hours, with serum collection at 6 and 24 hours post-injection. […]

[3] = Particle size and polydispersity (PDI) of delivery vehicles by dynamic light scattering; type: physicochemical; details: Table 5; delivery vehicle comprising the peptoid, Formulation D22, fLuc mRNA
In short: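 Dynamic light scattering of formulated samples diluted to 2 ng/μL in PBS. Size reported as hydrodynamic diameter (nm) from cumulant fit of the correlation function, with its polydispersity index.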

[4] = RBC hemolysis as metric for fusogenicity; type: cell-based; details: sheep red blood cells (RBCs), 5% v/v, Table 5, delivery vehicle, 37° C. 45 min
In short: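 Sheep RBCs at 5% v/v in 20 mM citrate/140 mM NaCl pH 5.5 or PBS, exposed to LNPs at […] in well, 37 °C for 45 min. Supernatant absorbance at 425 nm; % hemolysis normalized to 2% Triton full lysis and buffer-only control.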

[5] = Apparent particle pKa, TNS fluorescence assay; type: physicochemical; details: Table 5; apparent particle pKa of delivery vehicle
Method: The apparent particle pKa was assessed by a TNS fluorescence assay. Briefly, particles were diluted to 130 uM total lipid in TNS buffer ranging in pH 3-11 for 10 minutes with […] of TNS probe. The fluorescence was measured at room temperature in a plate reader ex 320/em 445. Fluorescence intensity was normalized to the minimal and maximal values and the pKa was determined by a 3 parameter fit to determine the half maximum of the curve.

SMILES: CCCCCCCCCCCCN(CC(=O)N(CC(N)=O)CC(CC)CCCC)C(=O)CN(CCCCCCCC)C(=O)CN(CC(CC)CCCC)C(=O)CN(CCCCCCCCCCCC)C(=O)CN(CCCCCCCC)C(=O)CNC(CO)CO (centres unmarked) [Compound 35] (H-[N(CH(CH2OH)2)Gly][N(octyl)Gly][Gly(N-dodecyl)][N(2-ethylhexyl)Gly][N(octyl)Gly][Gly(N-dodecyl)][N(2-ethylhexyl)Gly]-NH2)
- % Encapsulation [1]: 76.1%
- Zeta Potential [2]: −5.88
- fLuc (luciferase) expression in vivo (BALB/c mice): top expressers
- PDI [3]: 0.082
- Particle Size (nm) [3]: 90.7 nm
- hemolysis at 45 min, 150 mM total lipid ([4]; pH 5, read-out: Hemolysis at pH 5): 4.5%
- hemolysis at 45 min, 150 mM total lipid ([4]; pH 7, read-out: Hemolysis at pH 7): 5.1%
- pKa (TNS) [5]: 5.937

Reference: patent publication US20260083769A1, “2-Aminopropane-1,3-Diol-Capped Cationic Peptoids for Nucleic Acid Delivery” (NUTCRACKER THERAPEUTICS, INC., priority 2022, published 2026)
